Assay type in all cases: functional
What all share (design): scale not given here

In test [1] the test system is Schistosoma mansoni.
The subject of test [2] is Schistosoma mansoni. The source holds these as a separate data set.
The subject of test [3] is Schistosoma mansoni. The source holds these as a separate data set.

In the case of `Oc1ccc(Br)cc1CN1CCN(Cc2ccc(Cl)cc2)CC1`, the Toxicity in test [1] was 1; in test [2], 0; in test [3], 0.
Regarding `Cc1ccc(NC(=O)Nc2cccc(Cl)c2)cc1F`, the Toxicity came to 1 in test [1], 0 in test [2] and 0 in test [3].
With `COc1ccc(Nc2nc(N/N=C/c3ccc(O)cc3)nc(Nc3ccc([N+](=O)[O-])cc3)n2)cc1`, the Toxicity in test [1], in test [2] and in test [3] was 0 each time.
For `COCCN(C(=O)Cc1cccs1)C(C(=O)NCc1ccc(OC)cc1)c1ccc(C(C)C)cc1` (centres undefined), the Toxicity in test [1], in test [2] and in test [3] was 0 in each case.
With `CCOc1c(Br)cc(C2C(C(=O)OC)=CN(C)C=C2C(=O)OC)cc1OC`, the Toxicity in test [1], in test [2] and in test [3] was 0 in each case.
Regarding `Cc1cc(NCCN2CCCCC2)c2ccc3ccccc3c2n1`, the Toxicity in test [1], in test [2] and in test [3] was 4 throughout.
Take `COc1cc(-c2nc(-c3ccccc3)c(-c3ccccc3)[nH]2)cc(OC)c1O`: the Toxicity in test [1], in test [2] and in test [3] was 0 in each case.
Take `Cc1nc2ccccc2c(O)c1CC=C(Cl)Cl`: the Toxicity in test [1], in test [2] and in test [3] was 0 in each case.
`CC(=O)c1sc(NC(=O)Nc2ccc(C)cc2C)nc1C`: the Toxicity in test [1], in test [2] and in test [3] was 0 each time.
Turning to `O=C(Nc1ccccc1O)c1ccc(-c2ccc(Cl)cc2Cl)o1`, the Toxicity in test [1], in test [2] and in test [3] was 0 each time.
Consider `COc1ccc(-c2cn3c(C(=O)Nc4ccccc4Cl)c(-c4ccccc4)c4c3n2CCCC4)cc1`, for which the Toxicity in test [1], in test [2] and in test [3] was 0 in each case.
Take `CCOC(=O)c1c(C)n(-c2ccccc2)c2ccc(OC(=O)c3cc(OC)c(OC)c(OC)c3)cc12`: the Toxicity in test [1], in test [2] and in test [3] was 0 in each case.
As for `COC(=O)c1ccc(C2C3=C(O)CC(c4ccc(F)cc4)CC3=Nc3ccccc3N2C(=O)c2ccccc2)cc1` (centres undefined), the Toxicity in test [1] is on record as 0; in test [2], 2; in test [3] it was 1.
Consider `CCC(O)c1ccc(Br)cc1NC(=O)c1cccc(Cl)c1` (centres undefined), for which the Toxicity in test [1], in test [2] and in test [3] was 0 in each case.
For `CCC(c1ccccc1)c1nn2c(-c3cccs3)nnc2s1` (centres undefined), the Toxicity in test [1], in test [2] and in test [3] was 0 each time.
For `COc1ccccc1NC1=C(N2CCCCC2)C(=O)c2ccccc2C1=O`, the Toxicity in test [1], in test [2] and in test [3] was 4 each time.
Take `O=C(Nc1ccc(-c2nc3ccccc3[nH]2)cc1)c1ccc(Cl)c(Cl)c1`: the Toxicity in test [1], in test [2] and in test [3] was 0 each time.
As to `O=C1c2ccc3c4c(ccc(c24)C(=O)N1CCCCO)C(=O)N(CCCCO)C3=O`, the Toxicity in test [1] stood at 0; in test [2], 0; in test [3] it was 4.
Consider `Cc1ccc(CSCc2ccc(C(=O)NC3CC3)o2)cc1`, for which the Toxicity in test [1], in test [2] and in test [3] was 0 in each case.
With `CCOc1cc(Cl)c(C(C)NC(=O)c2ccccc2)cc1OCC` (centres undefined), the Toxicity in test [1], in test [2] and in test [3] was 0 throughout.
Regarding `CCN1CCN(c2cc(C)c3cc(NC(=O)c4ccc(OC)c(OC)c4)ccc3n2)CC1`, the figures for the Toxicity in test [1], in test [2] and in test [3] were 1, 0 and 0, respectively.
As to `Cc1ccc(N2C3c4ccccc4N(S(=O)(=O)c4ccc(C)cc4)C2c2ccccc2N3S(=O)(=O)c2ccc(C)cc2)cc1`, the Toxicity in test [1], in test [2] and in test [3] was 0 in each case.
With `O=C1c2ccccc2C2=Nc3ccccc3SC(c3cccc(F)c3)C12` (centres undefined), the Toxicity in test [1], in test [2] and in test [3] was 1 in each case.
As for `CCn1c(CN2CCN(Cc3ccccc3)CC2)nc2cc(NC(=O)c3cccs3)ccc21`, the Toxicity in test [1], in test [2] and in test [3] was 0 in each case.
Regarding `O=C(CCc1ccccc1)c1ccccc1OCC(O)CN1CCCCC1` (centres undefined), the Toxicity in test [1] was found to be 1; in test [2], 0; in test [3], 4.
For `CCOc1ccc(CN2CCN(CC(O)COc3ccc(OCC(O)CN4CCN(Cc5ccc(OCC)cc5)CC4)cc3)CC2)cc1` (centres undefined), the Toxicity in test [1] is reported as 3; in test [2], 4; in test [3], 4.
For the compound `CCOc1cc2c(cc1OCC)C(c1cc(Cl)c(O)c(OCC)c1)NCC2` (centres undefined), the Toxicity in test [1], in test [2] and in test [3] was 0 throughout.
For `COc1cc(C(=O)Nc2nc3c(cc4c5c(cccc53)CC4)s2)cc(OC)c1OC`, the Toxicity in test [1], in test [2] and in test [3] was 0 in each case.
On to `COc1cc2cc(C(=O)Nc3ccccc3)c(N)nc2cc1OC`, for which the Toxicity in test [1] is 0; in test [2], 0; in test [3], 2.
Turning to `COc1ccc(Nc2cc(C)nc(NCc3ccccc3)n2)cc1`, the Toxicity in test [1] came out at 2; in test [2] it was 3; in test [3], 3.
Regarding `CCCn1c(=N)c(C(=O)NC2CCCCC2)cc2c(=O)n3cccc(C)c3nc21`, the Toxicity in test [1], in test [2] and in test [3] was 0 in each case.
Regarding `COc1ccc(-c2c(C)nn3c(N)c(C#N)cnc23)cc1OC`, the Toxicity in test [1], in test [2] and in test [3] was 1 each time.
Regarding `COc1ccccc1CNC(=O)C1c2ccccc2C(=O)N(CC(C)C)C1c1cccs1` (centres undefined), the Toxicity in test [1], in test [2] and in test [3] was 0 throughout.
In the case of `OC1=C2C(=Nc3ccccc3SC2c2ccccc2)c2ccccc21` (centres undefined), the Toxicity in test [1], in test [2] and in test [3] was 0 throughout.
Consider `Cl.c1ccc2c(NCCCCCCNc3c4c(nc5ccccc35)CCCC4)c3c(nc2c1)CCCC3`, for which the Toxicity in test [1], in test [2] and in test [3] was 4 throughout.
`CCCc1c(CC)c(=N)c2ccccc2n1C`: the results for the Toxicity in test [1], in test [2] and in test [3] were 1, 0 and 0, respectively.
As to `COCCNC(=O)c1ccc(OC2CCN(Cc3ccc(F)c(F)c3)CC2)c(Cl)c1`, the Toxicity in test [1], in test [2] and in test [3] was 0 throughout.
Consider `Oc1c2c(nc3cc(-c4ccccc4)nn13)CCCC2`, for which the Toxicity in test [1], in test [2] and in test [3] was 0 throughout.
For `COc1ccc(-n2ccnc2SCC(=O)Nc2cc(C)ccc2C)c(OC)c1`, the Toxicity in test [1], in test [2] and in test [3] was 1 throughout.
In the case of `Cc1cc(C=C2SC(=Nc3ccccc3)N(C3CCCC3)C2=O)c(C)n1-c1ccc(Cl)cc1`, the Toxicity in test [1], in test [2] and in test [3] was 0 each time.
Take `O=C(Nc1cccc(C2=NCCN2)c1)Nc1cccc(C2=NCCN2)c1` [IMIDOCARB]: the Toxicity in test [1], in test [2] and in test [3] was 0 throughout.
Turning to `CC(=O)Nc1nnc(SCc2c(C)cc(C(C)(C)C)cc2C)s1`, the Toxicity in test [1], in test [2] and in test [3] was 0 each time.
Take `Cc1cccc(N2C(=O)C3C(C2=O)C2(c4ccccc4)C(=O)C3(c3ccccc3)C(c3ccc4c(c3)OCO4)=C2c2ccc3c(c2)OCO3)c1` (centres undefined): the Toxicity in test [1], in test [2] and in test [3] was 0 each time.
For the compound `Cc1ccc(S(=O)(=O)c2c(COC(=O)c3cccc(C)c3)c(-c3ccccc3)nn2C)cc1`, the Toxicity in test [1], in test [2] and in test [3] was 0 in each case.
Consider `CCOC(=O)c1cn(CC)c2cc(N3CCCCC3)c(F)cc2c1=O`, for which the Toxicity in test [1], in test [2] and in test [3] was 0 throughout.
As for `Cc1cc(Nc2ccc(C)c(Cl)c2)n2nc(C(F)(F)F)nc2n1`, the Toxicity in test [1], in test [2] and in test [3] was 0 each time.
On to `CC1CC2=C(CC1CNCCCN(C)C)C(C)(C)CCC2` (centres undefined), for which the Toxicity in test [1], in test [2] and in test [3] was 4 throughout.
For the compound `CCN(CC)CCCNc1ccnc2cc3ccccc3cc12`, the Toxicity in test [1], in test [2] and in test [3] was 2 in each case.
Consider `CCOc1ccc(CCNC(=O)c2cccs2)cc1OCC`, for which the Toxicity in test [1], in test [2] and in test [3] was 0 each time.
As for `Cc1ccccc1OCCSc1nc2ccc(NC(=O)c3cccs3)cc2s1`, the Toxicity in test [1], in test [2] and in test [3] was 0 each time.
For the compound `COc1ccc(C2Sc3ccccc3N=C3C2=C(O)c2ccccc23)cc1` (centres undefined), the Toxicity in test [1], in test [2] and in test [3] was 0 in each case.
As to `Nc1ccc(-c2nc3cc(Oc4ccc(Oc5ccc6[nH]c(-c7ccc(N)cc7)nc6c5)cc4)ccc3[nH]2)cc1`, the Toxicity is listed as 0 in test [1], 0 in test [2] and 2 in test [3].
In the case of `CCN1CCN(Cc2ccc(NC(=O)c3cc4ccc5cccnc5c4[nH]3)cc2)CC1`, the Toxicity turned out to be 0 in test [1], 1 in test [2] and 0 in test [3].

For the origin of these results see ChEMBL document CHEMBL2363022, “Malaria Box Schistosomiasis Screening Data” (2013).
